Measured values published in ChEMBL document CHEMBL4483862, “Open-source discovery of chemical leads for next-generation chemoprotective antimalarials” (2018).

System: Plasmodium berghei
Assay: Luciferase/luciferin-expressing antifolate-resistant parasites were used to infect a culture of HepG2 cells that were pre-incubated with compounds. Infected hepatocytes emit light due to the luciferase reaction. Assay results are presented as the percent inhibition of light emission compared to control. […]
Format: functional
Details: sporozoite; for IC90: read-out: LUCIFERASE INFECTION ASSAY - IC90
[1] = read-out: LUCIFERASE INFECTION ASSAY - IC50

Row | Structure (SMILES) | IC90 | IC50 [1] | other results
1 | Oc1cccc2c(NC(S)=Nc3ccc(SC(F)F)cc3)cccc12 | 7.7 µM |  | IC50 (FFLUC_HILL_SLOPE 69.3, FFLUC_R_SQUARED 0.272, PBLUC_HILL_SLOPE 39, PBLUC_R_SQUARED 0.0559, read-out: LUCIFERASE INFECTION ASSAY - IC50): 7.27 µM
2 | CN(CC(=O)Nc1c(Cl)cccc1Cl)C(=O)c1ccccc1-c1nc2ccccc2s1 | 6.97 µM |  | IC50 (FFLUC_HILL_SLOPE 17.7, FFLUC_R_SQUARED 0.2, PBLUC_HILL_SLOPE 167, PBLUC_R_SQUARED 0.153, read-out: LUCIFERASE INFECTION ASSAY - IC50): 6.87 µM
3 | CCOC(=O)c1nn(CC2CC2)c2c1CN(CC(C)Cc1ccc3c(c1)OCO3)CC2 (stereo not drawn) | > 7.76 µM | > 7.76 µM | 
4 | C/C(=N\NC(N)=S)c1ccc(CC(C)C)cc1 | > 13.2 µM |  | IC50 (HEPG2TOX_HILL_SLOPE 2.45, HEPG2TOX_R_SQUARED 0.895, PBLUC_HILL_SLOPE 1.49, PBLUC_R_SQUARED 0.577, read-out: LUCIFERASE INFECTION ASSAY - IC50): 4.2 µM
5 | COc1ccc(C(=O)NCC(C)(C)SCc2c(C)cc(C)cc2C)cc1 | > 8.88 µM |  | IC50 (PBLUC_HILL_SLOPE 1.94, PBLUC_R_SQUARED 0.532, read-out: LUCIFERASE INFECTION ASSAY - IC50): 3.09 µM
6 | Cc1ccc(-n2nnnc2SCc2ccccc2Cl)c(C)c1 | > 9.97 µM |  | IC50 (HEPG2TOX_HILL_SLOPE 1.94, HEPG2TOX_R_SQUARED 0.896, PBLUC_HILL_SLOPE 2.04, PBLUC_R_SQUARED 0.254, read-out: LUCIFERASE INFECTION ASSAY - IC50): 6.75 µM
7 | CC(=O)N1N=C(c2ccccc2O)CC1c1c(F)cccc1Cl (stereo not drawn) | 9.88 µM |  | IC50 (HEPG2TOX_HILL_SLOPE 8.22, HEPG2TOX_R_SQUARED 0.351, PBLUC_HILL_SLOPE 15.6, PBLUC_R_SQUARED 0.178, read-out: LUCIFERASE INFECTION ASSAY - IC50): 8.59 µM
8 | CN1CCN(c2ccc(-c3cn4c(-c5cccc(N(C)C)c5)cnc4cn3)cn2)CC1 | > 7.98 µM |  | IC50 (PBLUC_HILL_SLOPE 2.11, PBLUC_R_SQUARED 0.385, read-out: LUCIFERASE INFECTION ASSAY - IC50): 6.15 µM
9 | CCC(C)NC(=O)c1c(NC(=O)c2ccc(F)cc2F)nc2ccc(C)cn12 (stereo not drawn) | 3.23 µM | 2.9 µM | 
10 | CC1=C2CCC(C)CC23C2C(=O)N(Cc4ccc(Cl)cc4)C(=O)C2C1C1C(=O)N(Cc2ccc(Cl)cc2)C(=O)C13 (stereo not drawn) | > 5.71 µM |  | IC50 (HEPG2TOX_HILL_SLOPE 0.355, HEPG2TOX_R_SQUARED 0.414, PBLUC_HILL_SLOPE 1.68, PBLUC_R_SQUARED 0.433, read-out: LUCIFERASE INFECTION ASSAY - IC50): 3.28 µM
11 | Cn1c2ccccc2c2ccc(CC(=O)N/N=C/c3ccccc3)cc21 | > 10 µM | > 10 µM | 
12 | CCN(c1ccccc1)S(=O)(=O)c1ccc(C(=O)NCC(c2ccccc2OC)N2CCCC2)cc1 (stereo not drawn) | 3.69 µM |  | IC50 (HEPG2TOX_HILL_SLOPE 12.4, HEPG2TOX_R_SQUARED 0.631, PBLUC_HILL_SLOPE 22.9, PBLUC_R_SQUARED 0.104, read-out: LUCIFERASE INFECTION ASSAY - IC50): 3.36 µM
13 | Cc1ccc(C(NCC(=O)Nc2sccc2C(N)=O)c2cccs2)cc1 (stereo not drawn) | 3.67 µM |  | IC50 (PBLUC_HILL_SLOPE 4.31, PBLUC_R_SQUARED 0.32, read-out: LUCIFERASE INFECTION ASSAY - IC50): 2.2 µM
14 | CC1CCN(S(=O)(=O)c2ccc(C(=O)Nc3ncccc3O)cc2)CC1 | > 10 µM |  | IC50 (PBLUC_HILL_SLOPE 2.15, PBLUC_R_SQUARED 0.503, read-out: LUCIFERASE INFECTION ASSAY - IC50): 4.81 µM
15 | Fc1cccc(F)c1/C=N/c1ccccc1N1CCOCC1 | > 10 µM | > 10 µM | 
16 | CCOC(=O)c1c(-c2ccc(Cl)cc2)csc1Nc1nc(S(=O)(=O)c2ccc(Cl)cc2)c(Cl)s1 | > 10 µM | 5.47 µM | 
17 | CC1CCN(CCCCOc2cccc(Cl)c2)CC1 | > 10 µM | > 10 µM | 
18 | Cc1nn(Cc2ccccc2)c(Cl)c1C(=O)OC(C)C(=O)N1CCN(Cc2ccccc2)CC1 (stereo not drawn) | > 10 µM |  | IC50 (HEPG2TOX_HILL_SLOPE 0.446, HEPG2TOX_R_SQUARED 0.649, read-out: LUCIFERASE INFECTION ASSAY - IC50): > 10 µM
19 | O=C(Nc1ccc(-c2nc3ccccc3[nH]2)cc1)c1cccc(N2CCCS2(=O)=O)c1 | 9.62 µM |  | IC50 (PBLUC_HILL_SLOPE 5.48, 3.67, PBLUC_R_SQUARED 0.355, 0.637, read-out: LUCIFERASE INFECTION ASSAY - IC50): 5.88 µM
20 | Cc1ccc(C(=O)OCC(=O)c2cc(C)n(-c3cccc(C(F)(F)F)c3)c2C)cc1NC(=O)c1ccco1 | > 10 µM |  | IC50 (FFLUC_HILL_SLOPE 14.7, FFLUC_R_SQUARED 0.458, read-out: LUCIFERASE INFECTION ASSAY - IC50): > 10 µM
21 | Cc1cc(=O)[nH]n(-c2ccccc2)c1=O | 8.7 µM |  | IC50 (HEPG2TOX_HILL_SLOPE 8.84, HEPG2TOX_R_SQUARED 0.75, PBLUC_HILL_SLOPE 7.32, PBLUC_R_SQUARED 0.521, read-out: LUCIFERASE INFECTION ASSAY - IC50): 6.44 µM
22 | O=C(CCc1ccc2c(c1)OCO2)Nc1nc(-c2ccc(Br)s2)cs1 | > 10 µM |  | IC50 (PBLUC_HILL_SLOPE 0.607, PBLUC_R_SQUARED 0.509, read-out: LUCIFERASE INFECTION ASSAY - IC50): 5.99 µM

Row | Structure (SMILES) | IC90 | IC50 [1] | other results
23 | COc1ccc(N(C(C)=O)c2nc(/C=C/C(=O)c3ccc(F)cc3)cs2)cc1 | > 10 µM |  | IC50 (FFLUC_HILL_SLOPE 11.2, FFLUC_R_SQUARED 0.397, read-out: LUCIFERASE INFECTION ASSAY - IC50): > 10 µM
24 | Cc1cc(C)n(CC(=O)n2cc(C(=O)c3cc(F)ccc3O)cn2)n1 | > 10 µM | > 10 µM | 
25 | CCCc1cc(=O)oc2cc(OCC(=O)NNC(=S)NC(=O)c3ccc(Cl)cc3)ccc12 | > 6.96 µM | > 6.96 µM | 
26 | CCOc1ccc(C(=O)c2c(-c3ccccc3)c3c4n(c(COc5cc(C)ccc5C(C)C)nn24)CCCC3)cc1 | > 10 µM | 8.64 µM | 
27 | Cc1nn(-c2ccc(Cl)cc2)c2sc(C(=O)NCC3(N(C)C)CCCCC3)cc12 | 5.31 µM |  | IC50 (HEPG2TOX_HILL_SLOPE 22.9, HEPG2TOX_R_SQUARED 0.594, PBLUC_HILL_SLOPE 11.3, PBLUC_R_SQUARED 0.837, read-out: LUCIFERASE INFECTION ASSAY - IC50): 4.37 µM
28 | Cc1nc(NCCCCCc2n[nH]c(N)c2C#N)c2c(-c3ccccc3)csc2n1 | 7.48 µM |  | IC50 (HEPG2TOX_HILL_SLOPE 1.31, HEPG2TOX_R_SQUARED 0.867, PBLUC_HILL_SLOPE 3.24, PBLUC_R_SQUARED 0.486, read-out: LUCIFERASE INFECTION ASSAY - IC50): 3.79 µM
29 | COc1ccc(-c2ccc(-c3nc4c(c(=O)[nH]c(=O)n4CC(C)C)n3CC(C)C)o2)c([N+](=O)[O-])c1 | > 10 µM | > 10 µM | 
30 | COC(=O)CSCCc1nc(-c2ccc(C(F)(F)F)cc2)cs1 | 8.8 µM |  | IC50 (PBLUC_HILL_SLOPE 1.19, PBLUC_R_SQUARED 0.68, read-out: LUCIFERASE INFECTION ASSAY - IC50): 1.39 µM
31 | CC(=O)Nc1ccc(CC#N)cc1 | > 18.9 µM | > 18.9 µM | 
32 | CCCN(CC(=O)Nc1cc(-c2ccccc2)sc1C(=O)OCC)Cc1nnc(-c2ccco2)o1 | > 10 µM |  | IC50 (PBLUC_HILL_SLOPE 3.67, PBLUC_R_SQUARED 0.341, read-out: LUCIFERASE INFECTION ASSAY - IC50): 7.32 µM
33 | Cc1ccc(S(=O)(=O)c2ccc(-c3ccccc3)cc2)cc1 | > 10.7 µM | > 10.7 µM | 
34 | Cc1ccc(C)c(Nc2sc(-c3cc(=O)oc4c(C)c(C)ccc34)c(N)c2-c2nc3ccccc3s2)c1 | 9.38 µM |  | IC50 (PBLUC_HILL_SLOPE 3.07, PBLUC_R_SQUARED 0.45, read-out: LUCIFERASE INFECTION ASSAY - IC50): 4.59 µM
35 | CC(=O)N1CCN(C(=O)CCC(=O)Nc2nc3ccccc3s2)CC1 | > 10 µM |  | IC50 (PBLUC_HILL_SLOPE 1.05, PBLUC_R_SQUARED 0.239, read-out: LUCIFERASE INFECTION ASSAY - IC50): > 10 µM
36 | O=C(Cn1ncc(Cl)c(Cl)c1=O)N(CCc1ccccc1)Cc1ccccc1 | 6.37 µM |  | IC50 (HEPG2TOX_HILL_SLOPE 33, HEPG2TOX_R_SQUARED 0.912, PBLUC_HILL_SLOPE 70.8, PBLUC_R_SQUARED 0.26, read-out: LUCIFERASE INFECTION ASSAY - IC50): 6.18 µM
37 | O=C(NCc1ccc(F)c(Cl)c1)Nc1csc([N+](=O)[O-])c1 | > 10 µM |  | IC50 (PBLUC_HILL_SLOPE 9.52, PBLUC_R_SQUARED 0.452, read-out: LUCIFERASE INFECTION ASSAY - IC50): 8.04 µM
38 | O=C(c1ccc(O)cc1)C1CCN(C(=O)c2cccc(N3CCCC3=O)c2)CC1 | > 10 µM | > 10 µM | 
39 | COc1ccc(C2c3c(C)nn(-c4ccccc4)c3N=C(c3ccccc3F)N2C2CC2)cc1 (stereo not drawn) | > 10 µM |  | IC50 (HEPG2TOX_HILL_SLOPE 5.27, HEPG2TOX_R_SQUARED 0.234, read-out: LUCIFERASE INFECTION ASSAY - IC50): > 10 µM
40 | COc1cc(-c2cc(-c3cc4ccccc4s3)cnc2N)cc(OC)c1OC | > 8.41 µM |  | IC50 (HEPG2TOX_HILL_SLOPE 0.717, HEPG2TOX_R_SQUARED 0.312, PBLUC_HILL_SLOPE 43.5, PBLUC_R_SQUARED 0.0859, read-out: LUCIFERASE INFECTION ASSAY - IC50): 8.37 µM
41 | Cc1noc2nc(C(C)C)cc(C(=O)Nc3nc4ccccc4[nH]3)c12 | > 10 µM | > 10 µM | 
42 | O=C(NNC(=O)c1cnc2ccccn2c1=O)c1cc(Cl)ccc1O | 4.25 µM |  | IC50 (HEPG2TOX_HILL_SLOPE 14.4, HEPG2TOX_R_SQUARED 0.595, PBLUC_HILL_SLOPE 11.5, PBLUC_R_SQUARED 0.377, read-out: LUCIFERASE INFECTION ASSAY - IC50): 3.51 µM
43 | Cc1nn(-c2ccccc2)c2sc(C(=O)N3c4ccccc4CC3C)cc12 (stereo not drawn) | > 10 µM | > 10 µM | 
44 | CCc1ccc(-n2nnnc2C/C=N/Nc2ccc(F)cc2)cc1 | > 10.2 µM | > 10.2 µM | 
